Measured values published in US20110039763A1, “TARGETED ANTIMICROBIAL MOIETIES” (C3 JIAN, INC., priority 2009, published 2011).
Entries after “also recorded” stand apart in the source; their conditions may differ. Bridge positions count the residues as written; N and C are the ends. Square brackets hold non-standard residues; d marks the D form. Ends that are not written are not given here. Peptide text beside a SMILES is read from it. I, II: the chains in the order shown. Aoc = NCCCCCCCC(=O)O

Key:
S. mutans [1] = test: Post-antibiotic effect assay, S. mutans; type: cell-based, Streptococcus mutans; settings: S. mutans monoculture; peptide 10 min, then fresh medium; FIG. 17A
Description: The activity and selectivity of MH-STAMPs after a 10 min incubation was determined by growth retardation experiments against targeted and untargeted bacteria in monocultures, as described previously (Id.). Cells from overnight cultures were diluted to ˜5×10^6 cfu/mL in MH (or TH with 1% sucrose for S. mutans), normalized by OD600 0.05-0.1 and seeded to 96-well plates. Cultures were then grown under the appropriate conditions for 2 h (3 h for S. mutans) prior to the addition of peptides for 10 min. Plates were then centrifuged at 3000×g for 5 min, the supernatants discarded, fresh medium returned (MH or TH without sucrose for S. mutans), and incubation resumed. Bacterial growth after treatment was then monitored over time by OD600.
MH-STAMP antimicrobial kinetics was ascertained utilizing a variation of the classical post-antibiotic effect assay, which measures the ability of an agent to affect an organism's growth after a short exposure period. Monocultures of MH-STAMP-targeted and untargeted organisms were exposed to M8(KH)-20, M8(BL)-20, BL(KH)-20, or unmodified BD2.20, then allowed to recover. […] Furthermore, replacement of the targeting region with a non-binding peptide abolishes specific activity.

[2] = system: Mixed planktonic populations of P. aeruginosa, E. coli, S. epidermidis, and S. mutans; test: Microbial population shift assay; type: cell-based; settings: mixed culture, 10 μM peptide, 24 h, detection limit 200 cfu/mL, FIG. 18
Description: Peptide (10 μM) or mock-treatment (1×PBS) was then added and samples were incubated at 37° C. for 24 h under anaerobic conditions (80% N2, 15% CO2, 5% H2). […] Plates were then incubated 37° C. under aerobic conditions (TH plates were incubated anaerobically) and colonies counted after 24 h to determine survivors. […] Gram stains and direct microscopic observation (from select isolated colonies) were undertaken to confirm species identity (data not shown). The detection limit of the assay was 200 cfu/mL.
We hypothesized that potential MH-STAMP dual-functionality could affect a particular set of bacteria within a mixed population, thereby promoting the outgrowth of non-targeted organisms and “shifting” the constituent makeup. To examine this possibility, defined mixed populations of planktonic cells were treated continuously and the make-up of the community examined after 24 h.

microorganisms [3] = test: Morphology, biofilm and growth disrupting peptides (Table 5); type: cell-based; design: key: A: Peptide aggregates; B: Less hyphal formation; Clumps; Diffuse clumps and small polyps; F: Diffuse growth; H: Thin; I: Growth inhibition; Microcolony formation; Rippled; Small polyps; Thick; W: Halo formation on top, microlonies on bottom
Text: In certain embodiments peptides that induce alterations in phenotype or other biological activities can also be used as antimicrobial effector moieties.

microorganisms [4] = test: Peptide activities: targeting/binding, antimicrobial, growth or phenotype altering (Tables 7, 8); type: cell-based; settings: peptides having multiple activities
C. difficile = test: MIC test / antimicrobial activity, C. difficile; type: cell-based, Clostridium difficile
Description: (§1) The active AMPs, STAMPs and the like can be identified and/or validated using an in vitro screening assay.
(§2) It will be appreciated that other assays as are well known in the art or that will become apparent to those having skill in the art upon review of this disclosure may also be used to identify active AMPs. Such assays include, for example, the assay described in Lehrer et al. (1988) J. Immunol.
(§3) Peptides were evaluated for basic antimicrobial activity by broth microdilution, as described previously (Eckert et al. (2006) Antimicrob Agents Chemother., 50: 3651-3657; Eckert et al. (2006) Antimicrob Agents Chemother., 50: 1480-1488). Briefly, ˜1×10^5 cfu/mL bacteria were diluted in TH (S. mutans), or Mueller-Hinton (MH) broth (all other organisms) and distributed to 96-well plates. Serially-diluted (2-fold) peptides were then added and the plates incubated at 37° C. for 18-24 h. […] All experiments were conducted 10 times.

microorganisms [5] = test: Targeting peptide binding to target microorganisms (Tables 3, 10, 12); settings: microorganism(s) the targeting peptide binds, preferably 1x PBS
E. coli = test: MIC test (broth microdilution) / antimicrobial activity, E. coli; type: cell-based, Escherichia coli
Description: as §1, §2, §3

S. epidermidis = test: MIC test (broth microdilution) / antimicrobial activity, S. epidermidis; type: cell-based, Staphylococcus epidermidis; settings: S. epidermidis
Description: as §1, §2, §3

MRSA = test: MIC test / antimicrobial activity, MRSA; type: cell-based, Methicillin-resistant Staphylococcus aureus
Description: as §1, §2, §3

S. pneumoniae = test: MIC test / antimicrobial activity, S. pneumoniae; type: cell-based, Streptococcus pneumoniae
Description: as §1, §2, §3

S. mutans [6] = test: MIC test (broth microdilution) / antimicrobial activity, S. mutans; type: cell-based, Streptococcus mutans
Description: as §1, §2, §3

P. aeruginosa = test: MIC test (broth microdilution) / antimicrobial activity, P. aeruginosa; type: cell-based, Pseudomonas aeruginosa; settings: P. aeruginosa
Description: as §1, §2, §3

A. baumannii = test: MIC test / antimicrobial activity, A. baumannii; type: cell-based, Acinetobacter baumannii
Description: as §1, §2, §3

C. albicans = test: MIC test / antimicrobial activity, C. albicans; type: cell-based, Candida albicans
Description: as §1, §2, §3

T. rubrum = test: MIC test / antimicrobial activity, T. rubrum; type: cell-based, Trichophyton rubrum
Description: as §1, §2, §3

B. subtilis = test: MIC test / antimicrobial activity, B. subtilis; type: cell-based, Bacillus subtilis; settings: B. subtilis
Description: as §1, §2, §3

S. mutans [7] = test: Anti-S. mutans STAMP activity in vitro, incl. formulations; type: cell-based, Streptococcus mutans
Text: During the course of evaluating STAMPs, antimicrobial peptides (AMPs), and binding peptides for desired activity, it was discovered that certain formulations can attenuate or promote peptide activity, as compared to activity levels in a default buffer system (1×PBS). In some cases, 1×PBS may provide the best level of activity. Below are a number of formulations that alter, or may alter, peptide or STAMP activity. For complex buffer systems, assume the base solvent is water unless otherwise stated.
All show potent selective activity against their bacterial targets in vitro, including against biofilm forms. When tested, STAMPs have little cytotoxicity against cell lines in vitro.
It was a surprising discovery that certain anti-S. mutans STAMPs required a salt in the formulation (e.g., PBS) for optimum activity. […] Suitable PBS formulations ranged from 0.5×PBS to about 2.5×PBS with an activity optimum at about 1×PBS. Similar results are believed to obtain for other anti-S. mutans STAMPS as well as a number of other STAMPs. In certain embodiments STAMP stability in solution was improved by inclusion of fluoride in mouthrinse.

[8] = binding in aqueous buffers varied with peptide solubility

## CC[C@H](C)[C@H](NC(=O)[C@H](Cc1ccccc1)NC(=O)CCCCCCCNC(=O)[C@H](CCCCNC(=O)CNC(=O)CNC(=O)CNC(=O)[C@H](C)NC(=O)[C@H](CCC(=O)O)NC(=O)[C@H](CC(N)=O)NC(=O)[C@H](C)NC(=O)[C@H](C)NC(=O)[C@@H](N)CC(=O)O)NC(=O)CNC(=O)CNC(=O)CNC(=O)[C@H](CCCNC(=N)N)NC(=O)[C@H](CC(N)=O)NC(=O)[C@H](CC(C)C)NC(=O)[C@H](Cc1ccccc1)NC(=O)[C@H](CCCNC(=N)N)NC(=O)[C@H](Cc1ccccc1)NC(=O)[C@H](Cc1ccccc1)NC(=O)[C@@H](NC(C)=O)[C@@H](C)O)C(=O)N[C@@H](CCCNC(=N)N)C(=O)N[C@@H](CCCCN)C(=O)N[C@@H](Cc1ccccc1)C(=O)N[C@@H](CC(C)C)C(=O)N[C@@H](CCCCN)C(=O)N[C@@H](CCCCN)C(=O)N[C@@H](Cc1c[nH]c2ccccc12)C(=O)N[C@@H](CC(C)C)C(=O)N[C@@H](CC(C)C)C(N)=O [M8(BL)-20] (I: Ac-TFFRFLNRGGGK[Aoc]FIRKFLKKWLL-NH2 / II: H-DAANEAGGG; amide I:12-II:C)
S. mutans [1]
  growth after treatment (culture recovery, OD600): effectively retarded
[2]; input ~0.5×10^4 cfu/mL
  surviving P. aeruginosa: not affected or affected to a lesser extent
[2]; input ~2×10^4 cfu/mL
  surviving E. coli: not affected or affected to a lesser extent
  surviving S. epidermidis: not affected or affected to a lesser extent
[2]; input ~6×10^4 cfu/mL
  surviving S. mutans: greatly reduced compared to input cfu/mL

## FELVDWLETNLGKILKSKSA-NH2 [PF-522]
Microorganisms [3]; S. pneumoniae
  Organism, effect: S. pneumoniae (H)
Microorganisms [4]
  Activities: G B M
C. difficile
  Organism MIC (μM): C. difficile, 25 μM
Microorganisms [5]; [8]
  Target(s): S. epidermidis; also recorded: E. coli; also recorded: P. aeruginosa; also recorded: S. pneumoniae; also recorded: E. faecalis

## FESKILNASKELDKEKKVNTALSFNSHQDFAKAYQNGKI [PF-606]
Microorganisms [3]; C. albicans
  Organism, effect: C. albicans (B)
Microorganisms [3]; MRSA
  Organism, effect: MRSA (I)
Microorganisms [3]; S. epidermidis
  Organism, effect: S. epidermidis (I)
Microorganisms [3]; S. mutans
  Organism, effect: S. mutans (I)
Microorganisms [3]; S. pneumoniae
  Organism, effect: S. pneumoniae (H)
E. coli
  Organism MIC (μM): E. coli, 50 μM
Microorganisms [4]
  Activities: G M
S. epidermidis
  Organism MIC (μM): S. epidermidis, 50 μM
MRSA
  Organism MIC (μM): MRSA, 50 μM
S. pneumoniae
  Organism MIC (μM): S. pneumoniae, 50 μM
S. mutans [6]
  Organism MIC (μM): S. mutans, 50 μM

## FIRKFLQKLHL [K-16]
P. aeruginosa
  Organism MIC (μM): P. aeruginosa, 12.5 μM
MRSA
  Organism MIC (μM): MRSA, 25 μM
S. mutans [6]
  Organism MIC (μM): S. mutans, 8 μM

## KNKKQTDILEKVKEILDKKKKTKSVGQKLY [PF-538]
Microorganisms [3]; S. pneumoniae
  Organism, effect: S. pneumoniae (H)
Microorganisms [4]
  Activities: G M
C. difficile
  Organism MIC (μM): C. difficile, 25 μM
A. baumannii
  Organism MIC (μM): A. baumannii, 25 μM

## LSLATFAKIFMTRSNWSLKRFNRL [PF-278]
Microorganisms [3]; C. albicans
  Organism, effect: C. albicans: C. albicans (B)
Microorganisms [3]; M. luteus
  Organism, effect: M. luteus: M. luteus (R)
Microorganisms [3]; S. epidermidis
  Organism, effect: S. epidermidis: S. epidermidis (I)
C. albicans
  Organism MIC (μM): C. albicans, 50 μM
Microorganisms [4]
  Activities: G B M
S. epidermidis
  Organism MIC (μM): S. epidermidis, 50 μM
T. rubrum
  Organism MIC (μM): T. rubrum, 50 μM
Microorganisms [5]; [8]
  Target(s): M. luteus; also recorded: A. baumannii

## MGIIAGIIKFIKGLIEKFTGK [PF-006]
Microorganisms [3]
  Organism, effect: B. subtilis: B. subtilis (I)
Microorganisms [3]; C. jejuni
  Organism, effect: C. jejuni: C. jejuni (D)
Microorganisms [3]; M. luteus
  Organism, effect: M. luteus: M. luteus (A)
Microorganisms [3]; MRSA
  Organism, effect: MRSA: MRSA (I)
Microorganisms [3]; S. epidermidis
  Organism, effect: S. epidermidis: S. epidermidis (D)
Microorganisms [3]; S. pneumoniae
  Organism, effect: S. pneumoniae: S. pneumoniae (R)
B. subtilis
  Organism MIC (μM): B. subtilis, 25 μM
Microorganisms [4]
  Activities: G B M
MRSA
  Organism MIC (μM): MRSA, 50 μM
A. baumannii
  Organism MIC (μM): A. baumannii, 50 μM
Microorganisms [5]; binding in aqueous buffers that varied with peptide solubility
  Target(s): S. epidermidis and M. luteus and E. coli and P. aeruginosa and MRSA and E. faecalis and C. jeikeium and C. jejuni

## MKRRRCNWCGKLFYLEEKSKEAYCCKECRKKAKKVKK [PF-307]
Microorganisms [3]
  Organism, effect: B. subtilis: B. subtilis (H)
Microorganisms [3]; C. albicans
  Organism, effect: C. albicans: C. albicans (B)
Microorganisms [3]; S. epidermidis
  Organism, effect: S. epidermidis: S. epidermidis (T)
C. albicans
  Organism MIC (μM): C. albicans, 50 μM
B. subtilis
  Organism MIC (μM): B. subtilis, 50 μM
Microorganisms [4]
  Activities: G B M
T. rubrum
  Organism MIC (μM): T. rubrum, 50 μM
Microorganisms [5]; [8]
  Target(s): S. epidermidis; also recorded: B. subtilis; also recorded: B. fragilis; also recorded: C. difficile

## TFFRLFNRSFTQALGKGGGKNLRIIRKGIHIIKKY* [C16G2]
S. mutans [7]; phosphate buffered saline (PBS) formulation, 0.5×PBS to about 2.5×PBS, optimum at about 1×PBS
  STAMP activity in formulation: active
S. mutans [7]; water-based salt-free buffers and nanoemulsions
  STAMP activity in formulation: substantially inactive

## TKKIELKRFVDAFVKKSYENYILERELKKLIKAINEELPTK [PF-600]
Microorganisms [3]; E. coli
  Organism, effect: E. coli (H)
Microorganisms [3]; M. luteus
  Organism, effect: M. luteus (C)
Microorganisms [3]; MRSA
  Organism, effect: MRSA (M)
Microorganisms [3]; S. epidermidis
  Organism, effect: S. epidermidis (C)
Microorganisms [3]; S. mutans
  Organism, effect: S. mutans (S)
Microorganisms [3]; S. pneumoniae
  Organism, effect: S. pneumoniae (R)
E. coli
  Organism MIC (μM): E. coli, 50 μM
Microorganisms [4]
  Activities: G B M
S. pneumoniae
  Organism MIC (μM): S. pneumoniae, 50 μM
